Series [1] can be described thus: Solubility in aqueous solution. The class given is physicochemical.
In series [2] the test system is human peripheral blood lymphocytes (PBL). Nature of the series: BrdU incorporation proliferation assay in human PBL. The class given is cell-based. Conditions: for proliferation stimulating activity, in words: conclusions from Table 1. The procedure: The T101 peptide was tested for its ability to activate proliferation of mouse spleenocytes or thymocytes (two mouse strains were used: CD1 and Balb/C), as well as human peripheral blood lymphocytes (PBL). The proliferation activity was measured by 5-bromo 2′-deoxy-uridine (BrdU) incorporation into these cells.
Human PBL were isolated on a Ficole gradient from blood taken from volunteers and then plated in 96-well plates, again using RPMI 1640+10% FCS+Pen/Str.
The cells were treated with different concentrations of the peptide or saline (as above) and after 48 hours were labeled for 6 hours with BrdU and tested for BrdU incorporation into their nucleus.
In the next experiment, several deletion mutants of the T101 peptide were constructed and synthesized. These mutants were tested for their ability to stimulate proliferation in human PBL. The right-hand column indicates the fold increase in proliferation over proliferation in untreated cells.
For orientation: Incorporation of labelled thymidine or its analogues reports DNA synthesis.

Where no end group is shown, it is not given here.

Take “LHLWLSGEPVQSSGTKDMRSKSDSKRVSDKQLISKAVWWTFFLPSTLWERK [T101 peptide]”: the “solubility in an aqueous solution” value in series [1] is reported as “soluble”.

On to “Mut #4: 8 C-terminal amino acids of the T101 peptide: PSTLWERK (Table 1 prints PSTLTWERK) (listed as Homo sapiens)”, for which, in series [2], the “Fold Increase in proliferation over proliferation in untreated cells” value (from here on “Fold Increase in proliferation”) is listed as 1.1-1.3 Fold and the “proliferation stimulating activity, in words” value was “almost no activity”.

Take “Mut #5: amino acids 36 to 48 of the T101 peptide: AVWWTFFLPSTLW (listed as Homo sapiens)”: in series [2], the “Fold Increase in proliferation” value is given as 2-2.2 Fold.

Regarding “Mut #2: amino acids 6 to 28 of the T101 peptide: SGEPVQSSGTKDMRSKSDSKRVS (listed as Homo sapiens)”, in series [2], the “Fold Increase in proliferation” value is given as 1.4-1.6 Fold and the “proliferation stimulating activity, in words” value is on record as “relatively low activity”.

With “Mut #3: 23 C-terminal amino acids of the T101 peptide: DKQLISKAVWWTFFLPSTLWERK (listed as Homo sapiens)”, in series [2], the “Fold Increase in proliferation” value was 2.2-2.8 Fold and the “proliferation stimulating activity, in words” value is listed as “very active”.

On to “Mut #1: 13 C-terminal amino acids of the T101 peptide: WTFFLPSTLWERK (listed as Homo sapiens)”, for which, in series [2], the “Fold Increase in proliferation” value is 2.5-3 Fold and the “proliferation stimulating activity, in words” value is reported as “very active”.

Take “Mut #6: amino acids 36 to 51 of the T101 peptide in the reverse order: KREWLTSPLFFTWWVA (listed as Homo sapiens)”: the “Fold Increase in proliferation” value in series [2] is reported as 2-2.4 Fold.

Values taken from patent US8071716B2, “Thymus-specific protein” (Immune System Key Ltd., priority 2004, dated 2011).
